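Compound exposure: 48 hours, 5 concentrations, 96-well plates. GI50 marks 50% less growth. TGI denotes the concentration required for complete inhibition of growth.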
Experiments:
Test in all cases: NCI tumour cell line growth inhibition, 48 h; in the data active = GI50 below about 0.43 µM; inactive = the rest
[1] = test system: KM12 colon
[2] = test system: A498 renal
[3] = test system: SNB-75 CNS
[4] = test system: MCF7 breast
[5] = test system: SW-620 colon
[6] = test system: SK-MEL-5 melanoma
[7] = test system: EKVX NSCLC
[8] = test system: LOX IMVI melanoma
[9] = test system: SR leukemia
[10] = test system: UACC-257 melanoma
[11] = test system: A549 NSCLC
[12] = test system: HS 578T breast
[13] = test system: MDA-MB-231 breast
[14] = test system: SK-OV-3 ovarian
[15] = test system: MDA-MB-435
[16] = test system: BT-549 breast
[17] = test system: CCRF-CEM leukemia
[18] = test system: NCI-H522 lung
[19] = test system: SF-295 CNS
[20] = test system: IGROV1 ovarian
[21] = test system: OVCAR-8 ovarian
[22] = test system: ACHN renal
[23] = test system: HOP-92 NSCLC
[24] = test system: UACC-62 melanoma
[25] = test system: 786-0 renal
[26] = test system: U251 CNS
[27] = test system: MALME-3M melanoma
[28] = test system: T-47D breast
[29] = test system: OVCAR-5 ovarian
[30] = test system: NCI-H460 lung
[31] = test system: OVCAR-4 ovarian
[32] = test system: HT29 colon
[33] = test system: K-562 leukemia
[34] = test system: UO-31 renal
[35] = test system: HCC-2998 colon
[36] = test system: OVCAR-3 ovarian
[37] = test system: PC-3 prostate
[38] = test system: CAKI-1 renal
[39] = test system: HCT-15 colon
[40] = test system: COLO 205 colon
[41] = test system: RPMI-8226 leukemia
[42] = test system: SK-MEL-28 melanoma
[43] = test system: SF-539 CNS
[44] = test system: HOP-62 NSCLC
[45] = test system: RXF 393 renal
[46] = test system: DU-145 prostate
[47] = test system: HL-60(TB) leukemia
[48] = test system: M14 melanoma
[49] = test system: NCI/ADR-RES ovarian
[50] = test system: SK-MEL-2 melanoma
[51] = test system: SN12C renal
[52] = test system: HCT-116 colon
[53] = test system: NCI-H23 lung
[54] = test system: TK-10 renal
[55] = test system: SNB-19 CNS
[56] = test system: MOLT-4 leukemia
[57] = test system: SF-268 CNS
[58] = test system: NCI-H226 lung
[59] = test system: MDA-N

CC(=O)C1=C(O)/C(=C\c2ccco2)OC1=O
> 10 µM: TGI [1] | TGI [2] | TGI [3] | TGI [4] | TGI [5] | TGI [6] | TGI [7] | TGI [8] | TGI [9] | TGI [10] | TGI [11] | TGI [12] | TGI [13] | TGI [14] | TGI [15] | TGI [16] | TGI [17] | TGI [18] | TGI [19] | TGI [20] | TGI [21] | TGI [22] | TGI [23] | TGI [24] | TGI [25] | TGI [26] | TGI [27] | TGI [28] | TGI [29] | TGI [30] | TGI [31] | TGI [32] | TGI [33] | TGI [34] | TGI [35] | TGI [36] | TGI [37] | TGI [38] | TGI [39] | TGI [40] | TGI [41] | TGI [42] | TGI [43] | TGI [44] | TGI [45] | TGI [46] | TGI [47] | TGI [48] | TGI [49] | TGI [50] | TGI [51] | TGI [52] | TGI [53] | TGI [54] | TGI [55] | TGI [56] | TGI [57] | TGI [58]

CCOC(=O)Cc1csc(NC(=O)C(OC(=O)c2ccc(N)cc2)c2ccccc2)n1 (configuration not stated)
65.6 µM: TGI [24]
87.4 µM: TGI [43]
45.3 µM: TGI [36]
92.5 µM: TGI [47]
inactive: GI50 [1] 37.5 µM | GI50 [2] 72.1 µM | GI50 [3] 45.9 µM | GI50 [4] 32.3 µM | GI50 [5] 49.5 µM | GI50 [6] 18.9 µM | GI50 [7] > 100 µM | GI50 [8] 41.7 µM | GI50 [9] 21.2 µM | GI50 [10] 40.5 µM | GI50 [11] 51.5 µM | GI50 [12] 80.9 µM | GI50 [13] 31.6 µM | GI50 [14] 46.7 µM | GI50 [15] 31.1 µM | GI50 [16] 40.3 µM | GI50 [18] 43 µM | GI50 [19] 42.2 µM | GI50 [20] 52.8 µM | GI50 [21] 73.6 µM | GI50 [22] 44.9 µM | GI50 [23] 62 µM | GI50 [24] 25.9 µM | GI50 [25] 48.6 µM | GI50 [26] 45.5 µM | GI50 [27] 44.2 µM | GI50 [28] 55.2 µM | GI50 [29] > 100 µM | GI50 [30] 32.7 µM | GI50 [31] 32.7 µM | GI50 [32] 39.9 µM | GI50 [33] 31.6 µM | GI50 [34] 54.4 µM | GI50 [35] 60 µM | GI50 [36] 20.5 µM | GI50 [37] 50.7 µM | GI50 [38] 39.6 µM | GI50 [39] 43.5 µM | GI50 [40] 46.2 µM | GI50 [41] 63.9 µM | GI50 [42] 30.9 µM | GI50 [43] 30.6 µM | GI50 [44] 52 µM | GI50 [45] 66.4 µM | GI50 [46] 48.3 µM | GI50 [47] 18.4 µM | GI50 [48] 22.6 µM | GI50 [49] 43.5 µM | GI50 [50] 40.2 µM | GI50 [51] 46.6 µM | GI50 [52] 30.8 µM | GI50 [54] 56.6 µM | GI50 [55] 53 µM | GI50 [56] 24.8 µM | GI50 [57] 35.5 µM | GI50 [58] 60 µM
97.1 µM: TGI [13]
98 µM: TGI [42]
> 100 µM: TGI [1] | TGI [2] | TGI [3] | TGI [4] | TGI [5] | TGI [7] | TGI [8] | TGI [9] | TGI [10] | TGI [11] | TGI [12] | TGI [14] | TGI [15] | TGI [16] | TGI [18] | TGI [19] | TGI [20] | TGI [21] | TGI [22] | TGI [23] | TGI [25] | TGI [26] | TGI [27] | TGI [28] | TGI [29] | TGI [30] | TGI [31] | TGI [32] | TGI [33] | TGI [34] | TGI [35] | TGI [37] | TGI [38] | TGI [39] | TGI [40] | TGI [41] | TGI [44] | TGI [45] | TGI [46] | TGI [49] | TGI [50] | TGI [51] | TGI [52] | TGI [54] | TGI [55] | TGI [56] | TGI [57] | TGI [58]
39.1 µM: TGI [6]
62.5 µM: TGI [48]

C=CC(C)(C)n1cc(C2=C(O)C(=O)C(c3cn(C(C)(C)C=C)c4ccccc34)=C(OC(C)=O)C2=O)c2ccccc21
2.55 µM: TGI [22]
2.8 µM: TGI [25]
2.16 µM: TGI [35]
1.94 µM: TGI [44]
2.38 µM: TGI [45]
1.95 µM: TGI [23]
1.55 µM: TGI [3]
3.07 µM: TGI [40]
1.87 µM: TGI [6]
2.5 µM: TGI [42]
1.65 µM: TGI [20]
2.3 µM: TGI [34]
2.23 µM: TGI [46]
2.63 µM: TGI [13]
3.06 µM: TGI [27]
2.28 µM: TGI [38]
1.97 µM: TGI [1]
2.64 µM: TGI [31]
2.17 µM: TGI [33]
2.97 µM: TGI [18]
1.99 µM: TGI [37]
3.88 µM: TGI [41]
1.72 µM: TGI [8]
2.1 µM: TGI [2]
3.08 µM: TGI [29]
1.88 µM: TGI [19]
2.85 µM: TGI [14]
1990 nM: TGI [59]
2.19 µM: TGI [10]
2.18 µM: TGI [24]
2.25 µM: TGI [36]
1.74 µM: TGI [15]

— PubChem BioAssay (NCI)
